Entries after “also recorded” stand apart in the source; their conditions may differ. Like-named read-outs stand apart in the source and are kept apart here. Ends that are not written are not given here.
Key:
SARS-CoV-2 S-RBD = SARS-CoV-2 S-RBD (Severe acute respiratory syndrome coronavirus 2, UniProt P0DTC2); experiment: biochemical; assay type: binding
[1] = target: T1, NRP1-BD (the b1 domain of NRP1) (Homo sapiens, UniProt O14786); experiment: Microscale thermophoresis (MST) binding to NRP1-BD; conditions: mean ± SD (n = 3)
T1 construct: NRP1-BD (the b1 domain of NRP1); purchased Abcam (Cambridge, MA, USA)
T1 sequence (O14786 275-424 limits assumed): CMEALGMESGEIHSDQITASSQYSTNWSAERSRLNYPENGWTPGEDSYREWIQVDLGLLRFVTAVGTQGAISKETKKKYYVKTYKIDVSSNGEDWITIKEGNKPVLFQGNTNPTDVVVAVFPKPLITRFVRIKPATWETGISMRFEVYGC

SARS-CoV-2 pseudovirus = conditions: for inhibition rate on pseudotyped SARS-CoV-2 infection: 3.2 µM
[2] = read-out: EC50 against pseudotyped SARS-CoV-2 infection

Compound | Kd (SARS-CoV-2 S-RBD) | EC50 (SARS-CoV-2 pseudovirus; pseudovirus, 48 h) | other results
NC(N)=NCCC[C@H](NC(=O)c1sccc1NS(=O)(=O)c1cccc2nsnc12)C(=O)O [EG00229] |  |  | S-RBD Kd (SARS-CoV-2 S-RBD): no binding; also recorded: without binding; Kd ([1]; value in μM): 4.9 ± 0.7 µM; inhibition rate on pseudotyped SARS-CoV-2 infection (SARS-CoV-2 pseudovirus): 15%; EC50 (SARS-CoV-2 pseudovirus; [2]): > 20000 nM
C[C@@]1(C(=O)O)CC[C@]2(C)CC[C@]3(C)C4=CC(=O)c5c(cc(O)c(O)c5C=O)[C@]4(C)CC[C@@]3(C)[C@@H]2C1 [T-96, demethylzeylasteral] |  |  | Kd (SARS-CoV-2 S-RBD; read-out: S-RBD Kd): 998.6 ± 8.4 nM; NRP1-BD Kd [1]: no binding; also recorded: without binding; inhibition rate on pseudotyped SARS-CoV-2 infection (SARS-CoV-2 pseudovirus): about 40%; EC50 (SARS-CoV-2 pseudovirus; [2]): 5420 nM
Ac-EARTFLDKYNHEAEDLYYQSSLASWGSPRRAR [RN-4] | 7.4 ± 0.5 nM | 390 ± 90 nM | 
Ac-EKSTLKDRFNHEAQDLKYQDSLASYRGKRPPR [RN-2] | 65.3 ± 2.2 nM | 2370 ± 420 nM | 
Ac-ETQVLLDKLNHEAEDLKYQSALASHRVRRPPR [RN-5] | 207 ± 4.5 nM | 3720 ± 890 nM | 
Ac-QNKVYIDKYNHEAQDLFYQSALKAHRGNRRAR [RN-1] | 19.9 ± 1.4 nM | 1980 ± 370 nM | 
Ac-QRNIYLDRHNHEAEDLKYQTALASFRPAKPAR [RN-3] | 95.3 ± 2.9 nM | 2870 ± 180 nM | 

Source: publication PMC10193894 (Journal of Enzyme Inhibition and Medicinal Chemistry, 2023)
